# Laboratory results reported in ChEMBL document CHEMBL6127049, “Discovery of the selective and nanomolar inhibitor of DPP-4 more potent than sitagliptin by structure-guided rational design” (Eur J Med Chem, 2024).
# The source made the active and inactive calls. The rule behind the calls is not given here.
# Legend:
# [1] = test system: Rattus norvegicus; experiment: Anti-diabetic activity in normal Wistar rat model assessed as blood glucose level at 20 mg/kg, po followed by treated administered 3 mg/kg orally measured after 120 mins by Oral glucose tolerance test (reference value: 126.5 + /- 3.90 mg/dL); type: functional; details: 2 h
# [2] = Acute toxicity in Balb/C mouse assessed as morphological changes in skin at 1250 to 2000 mg/kg, po; type: organism-based; details: in vivo, dose 1250-2000 mg/kg
# [3] = test system: Rattus norvegicus; experiment: Anti-diabetic activity in normal Wistar rat model assessed as blood glucose level at 10 mg/kg, po followed by treated administered 3 mg/kg orally measured after 120 mins by Oral glucose tolerance test (reference value: 126.5 + /- 3.90 mg/dL); type: functional; details: 2 h
# [4] = test system: Rattus norvegicus; experiment: Reduction of serum glutamate pyruvate transaminase (SGPT) level in STZ-induced type 2 diabetes male Wistar albino rat model at 10 mg/kg, po measured after 4 weeks by hepatic function test; type: functional, organism-based
# [5] = test system: Rattus norvegicus; experiment: Antihyperlipidemic effect in STZ-induced type 2 diabetes male Wistar albino rat model assessed as LDL level at 10 mg/kg, po measured after 4 weeks (reference value: 184.65 +/- 4.57 mg/dL); type: functional
# [6] = test system: Rattus norvegicus; experiment: Anti-diabetic activity in normal Wistar rat model assessed as blood glucose level at 20 mg/kg, po followed by treated administered 3 mg/kg orally measured after 30 mins by Oral glucose tolerance test (reference value: 176.14 + /- 4.04 mg/dL); type: functional; details: 0.5 h
# [7] = test system: Rattus norvegicus; experiment: Anti-diabetic activity in normal Wistar rat model assessed as blood glucose level at 10 mg/kg, po followed by treated administered 3 mg/kg orally measured after 90 mins by Oral glucose tolerance test (reference value: 134.11 + /- 4.64 mg/dL); type: functional; details: 1.5 h
# [8] = test system: Rattus norvegicus; experiment: Reduction of insulin level in STZ-induced type 2 diabetes male Wistar albino rat model at 20 mg/kg, po measured after 4 weeks by hepatic function test; type: functional, organism-based
# [9] = test system: Rattus norvegicus; experiment: Antihyperlipidemic effect in STZ-induced type 2 diabetes male Wistar albino rat model assessed as total cholesterol level at 10 mg/kg, po measured after 4 weeks (reference value: 227.04 +/- 4.10 mg/dL); type: functional
# [10] = Acute toxicity in Balb/C mouse assessed as morphological changes in eyes at 1250 to 2000 mg/kg, po; type: organism-based; details: in vivo, dose 1250-2000 mg/kg
# [11] = test system: Rattus norvegicus; experiment: Antihyperlipidemic effect in STZ-induced type 2 diabetes male Wistar albino rat model assessed as HDL level at 10 mg/kg, po measured after 4 weeks (reference value: 25.54 +/- 2.62 mg/dL); type: functional
# [12] = Acute toxicity in Balb/C mouse assessed as morphological changes in diarrhea at 1250 to 2000 mg/kg, po; type: organism-based; details: in vivo, dose 1250-2000 mg/kg
# [13] = test system: Rattus norvegicus; experiment: Anti-diabetic activity in normal Wistar rat model assessed as blood glucose level at 20 mg/kg, po followed by treated administered 3 mg/kg orally measured immediately after administration by Oral glucose tolerance test (reference value: 105.12 mg/dL); type: functional
# [14] = Acute toxicity in Balb/C mouse assessed as morphological changes in nose at 1250 to 2000 mg/kg, po; type: organism-based; details: in vivo, dose 1250-2000 mg/kg
# [15] = test system: Rattus norvegicus; experiment: Anti-diabetic activity in normal Wistar rat model assessed as blood glucose level at 20 mg/kg, po followed by treated administered 3 mg/kg orally measured after 90 mins by Oral glucose tolerance test (reference value: 134.11 + /- 4.64 mg/dL); type: functional; details: 1.5 h
# [16] = test system: Rattus norvegicus; experiment: Anti-diabetic activity in normal Wistar rat model assessed as blood glucose level at 10 mg/kg, po followed by treated administered 3 mg/kg orally measured after 60 mins by Oral glucose tolerance test (reference value: 153.74 + /- 3.94 mg/dL); type: functional; details: 1 h
# [17] = test system: Rattus norvegicus; experiment: Anti-diabetic activity in normal Wistar rat model assessed as blood glucose level at 20 mg/kg, po followed by treated administered 3 mg/kg orally measured after 60 mins by Oral glucose tolerance test (reference value: 153.74 + /- 3.94 mg/dL); type: functional; details: 1 h
# [18] = Acute toxicity in Balb/C mouse assessed as morphological changes in salvation at 1250 to 2000 mg/kg, po; type: organism-based; details: in vivo, dose 1250-2000 mg/kg
# [19] = test system: Rattus norvegicus; experiment: Reduction of serum glutamate pyruvate transaminase (SGPT) level in STZ-induced type 2 diabetes male Wistar albino rat model at 20 mg/kg, po measured after 4 weeks by hepatic function test; type: functional, organism-based
# [20] = Acute toxicity in Balb/C mouse assessed as morphological changes in unusual behavior at 1250 to 2000 mg/kg, po; type: organism-based; details: in vivo, dose 1250-2000 mg/kg
# [21] = test system: Rattus norvegicus; experiment: Antihyperlipidemic effect in STZ-induced type 2 diabetes male Wistar albino rat model assessed as LDL level at 20 mg/kg, po measured after 4 weeks (reference value: 184.65 +/- 4.57 mg/dL); type: functional
# [22] = molecular target: Dipeptidyl peptidase 8 (Homo sapiens, UniProt Q6V1X1); experiment: Inhibition of DPP8 (unknown origin) assessed as hydrolysis rate using Gly-pro-p-nitroanilide as substrate measured after 20 mins incubation by […] assay
# Dipeptidyl peptidase 8, sequence (Q6V1X1 whole entry): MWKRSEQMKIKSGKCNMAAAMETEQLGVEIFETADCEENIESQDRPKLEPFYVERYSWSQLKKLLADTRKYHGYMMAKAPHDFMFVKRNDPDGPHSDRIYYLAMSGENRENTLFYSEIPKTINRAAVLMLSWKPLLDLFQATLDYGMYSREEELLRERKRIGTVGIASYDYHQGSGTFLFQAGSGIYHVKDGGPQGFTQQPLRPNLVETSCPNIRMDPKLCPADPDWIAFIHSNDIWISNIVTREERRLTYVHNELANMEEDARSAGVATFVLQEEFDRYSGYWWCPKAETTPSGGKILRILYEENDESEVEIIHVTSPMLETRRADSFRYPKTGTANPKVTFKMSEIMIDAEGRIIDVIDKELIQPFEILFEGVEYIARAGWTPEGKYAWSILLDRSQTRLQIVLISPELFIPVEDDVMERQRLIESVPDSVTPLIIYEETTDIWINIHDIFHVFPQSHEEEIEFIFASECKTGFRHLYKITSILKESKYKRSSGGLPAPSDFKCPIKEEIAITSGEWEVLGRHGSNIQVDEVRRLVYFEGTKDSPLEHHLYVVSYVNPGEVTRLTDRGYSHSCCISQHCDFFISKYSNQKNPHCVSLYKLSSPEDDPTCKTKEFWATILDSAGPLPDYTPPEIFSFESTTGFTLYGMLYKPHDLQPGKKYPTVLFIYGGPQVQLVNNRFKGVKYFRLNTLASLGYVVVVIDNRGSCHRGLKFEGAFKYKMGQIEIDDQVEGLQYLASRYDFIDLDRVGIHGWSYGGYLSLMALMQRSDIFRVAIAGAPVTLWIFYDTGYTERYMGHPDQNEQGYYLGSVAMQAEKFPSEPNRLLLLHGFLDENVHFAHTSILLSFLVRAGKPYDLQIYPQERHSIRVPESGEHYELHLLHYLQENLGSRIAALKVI
# [23] = Acute toxicity in Balb/C mouse assessed as morphological changes in fur at 1250 to 2000 mg/kg, po; type: organism-based; details: in vivo, dose 1250-2000 mg/kg
# [24] = Acute toxicity in Balb/C mouse assessed as changes in general appearance at 1250 to 2000 mg/kg, po; type: organism-based; details: in vivo, dose 1250-2000 mg/kg
# [25] = test system: Rattus norvegicus; experiment: Antihyperlipidemic effect in STZ-induced type 2 diabetes male Wistar albino rat model assessed as triglyceride level at 10 mg/kg, po measured after 4 weeks (reference value: 190.23 +/- 4.37 mg/dL); type: functional
# [26] = test system: Rattus norvegicus; experiment: Antihyperlipidemic effect in STZ-induced type 2 diabetes male Wistar albino rat model assessed as HDL level at 20 mg/kg, po measured after 4 weeks (reference value: 25.54 +/- 2.62 mg/dL); type: functional
# [27] = Acute toxicity in Balb/C mouse assessed as morphological changes in convulsions at 1250 to 2000 mg/kg, po; type: organism-based; details: in vivo, dose 1250-2000 mg/kg
# [28] = test system: Rattus norvegicus; experiment: Reduction of alkaline phosphatase (ALP) level in STZ-induced type 2 diabetes male Wistar albino rat model at 20 mg/kg, po measured after 4 weeks by hepatic function test; type: functional, organism-based
# [29] = molecular target: Dipeptidyl peptidase 9 (Homo sapiens, UniProt Q86TI2); experiment: Inhibition of DPP9 (unknown origin) assessed as hydrolysis rate using Gly-pro-p-nitroanilide as substrate measured after 20 mins incubation by […] assay
# Dipeptidyl peptidase 9, sequence (Q86TI2 whole entry): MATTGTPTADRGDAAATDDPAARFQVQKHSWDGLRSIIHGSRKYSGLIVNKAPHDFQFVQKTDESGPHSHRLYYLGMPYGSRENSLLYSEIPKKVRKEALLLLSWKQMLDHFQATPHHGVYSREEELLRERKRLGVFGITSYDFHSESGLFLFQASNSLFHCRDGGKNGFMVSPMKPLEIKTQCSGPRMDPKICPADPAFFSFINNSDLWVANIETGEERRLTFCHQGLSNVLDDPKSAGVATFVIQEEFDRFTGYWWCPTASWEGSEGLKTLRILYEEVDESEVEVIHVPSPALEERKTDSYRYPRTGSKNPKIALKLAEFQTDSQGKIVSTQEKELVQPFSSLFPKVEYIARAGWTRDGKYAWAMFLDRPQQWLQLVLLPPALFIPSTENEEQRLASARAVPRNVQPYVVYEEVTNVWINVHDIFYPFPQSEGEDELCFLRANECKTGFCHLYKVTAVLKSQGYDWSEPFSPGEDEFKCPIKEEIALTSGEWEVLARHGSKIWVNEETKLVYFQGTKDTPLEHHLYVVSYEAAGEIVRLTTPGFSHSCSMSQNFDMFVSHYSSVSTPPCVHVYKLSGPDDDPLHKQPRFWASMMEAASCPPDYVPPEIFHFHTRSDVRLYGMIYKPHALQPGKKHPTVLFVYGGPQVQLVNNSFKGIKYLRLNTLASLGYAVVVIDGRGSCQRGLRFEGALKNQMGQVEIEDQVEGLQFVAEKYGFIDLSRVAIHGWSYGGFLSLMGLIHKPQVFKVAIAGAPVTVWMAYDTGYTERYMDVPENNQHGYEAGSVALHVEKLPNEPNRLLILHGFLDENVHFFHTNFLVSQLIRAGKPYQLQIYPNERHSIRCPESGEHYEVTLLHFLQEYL
# [30] = test system: Rattus norvegicus; experiment: Anti-diabetic activity in normal Wistar rat model assessed as blood glucose level at 10 mg/kg, po followed by treated administered 3 mg/kg orally measured after 30 mins by Oral glucose tolerance test (reference value: […] 176.14 + /- 4.04 mg/dL); type: functional; details: 0.5 h
# [31] = test system: Rattus norvegicus; experiment: Antihyperlipidemic effect in STZ-induced type 2 diabetes male Wistar albino rat model assessed as total cholesterol level at 20 mg/kg, po measured after 4 weeks (reference value: 227.04 +/- 4.10 mg/dL); type: functional
# [32] = test system: Rattus norvegicus; experiment: Antihyperlipidemic effect in STZ-induced type 2 diabetes male Wistar albino rat model assessed as triglyceride level at 20 mg/kg, po measured after 4 weeks (reference value: 190.23 +/- 4.37 mg/dL); type: functional
# [33] = Acute toxicity in Balb/C mouse assessed as morphological changes in tremors at 1250 to 2000 mg/kg, po; type: organism-based; details: in vivo, dose 1250-2000 mg/kg
# [34] = test system: Rattus norvegicus; experiment: Reduction of serum glutamate oxaloacetate transaminase (SGOT) level in STZ-induced type 2 diabetes male Wistar albino rat model at 10 mg/kg, po measured after 4 weeks by hepatic function test; type: functional, organism-based
# [35] = test system: Rattus norvegicus; experiment: Reduction of serum glutamate oxaloacetate transaminase (SGOT) level in STZ-induced type 2 diabetes male Wistar albino rat model at 20 mg/kg, po measured after 4 weeks by hepatic function test; type: functional, organism-based
# [36] = molecular target: Dipeptidyl peptidase 4 (Homo sapiens, UniProt P27487); experiment: Inhibition of DPP4 (unknown origin) assessed as hydrolysis rate using Gly-pro-p-nitroanilide as substrate measured after 20 mins incubation by fluorometric assay
# Dipeptidyl peptidase 4, sequence (P27487 whole entry): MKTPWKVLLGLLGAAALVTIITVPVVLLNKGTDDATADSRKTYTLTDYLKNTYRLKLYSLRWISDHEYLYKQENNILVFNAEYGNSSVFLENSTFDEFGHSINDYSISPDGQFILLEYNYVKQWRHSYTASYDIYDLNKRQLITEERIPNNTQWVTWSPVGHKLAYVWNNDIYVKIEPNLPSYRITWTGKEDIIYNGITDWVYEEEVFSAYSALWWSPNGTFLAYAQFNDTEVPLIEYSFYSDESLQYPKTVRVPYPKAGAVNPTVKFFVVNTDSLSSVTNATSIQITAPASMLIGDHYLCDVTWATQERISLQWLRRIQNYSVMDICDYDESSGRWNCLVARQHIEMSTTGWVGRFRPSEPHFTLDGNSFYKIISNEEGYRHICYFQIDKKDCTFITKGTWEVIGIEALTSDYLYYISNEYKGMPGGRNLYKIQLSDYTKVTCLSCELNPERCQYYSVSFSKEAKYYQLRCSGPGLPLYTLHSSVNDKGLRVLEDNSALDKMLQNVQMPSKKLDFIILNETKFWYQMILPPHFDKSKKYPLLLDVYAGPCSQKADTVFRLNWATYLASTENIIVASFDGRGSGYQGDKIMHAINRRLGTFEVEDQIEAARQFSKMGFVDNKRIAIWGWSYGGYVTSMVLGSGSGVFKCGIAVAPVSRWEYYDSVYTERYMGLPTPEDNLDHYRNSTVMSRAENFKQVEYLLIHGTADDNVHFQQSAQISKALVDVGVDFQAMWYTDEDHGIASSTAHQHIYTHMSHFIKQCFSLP
# [37] = test system: Rattus norvegicus; experiment: Reduction of alkaline phosphatase (ALP) level in STZ-induced type 2 diabetes male Wistar albino rat model at 10 mg/kg, po measured after 4 weeks by hepatic function test; type: functional, organism-based
# [38] = test system: Rattus norvegicus; experiment: Anti-diabetic activity in normal Wistar rat model assessed as blood glucose level at 10 mg/kg, po followed by treated administered 3 mg/kg orally measured immediately after administration by Oral glucose tolerance test (reference value: 105.12 mg/dL); type: functional
# [39] = species on record: Rattus norvegicus; experiment: Anti-diabetic activity in STZ-induced type 2 diabetes male Wistar albino rat model assessed as fasting blood glucose level measured on day 1; type: functional
# [40] = species on record: Rattus norvegicus; experiment: Anti-diabetic activity in STZ-induced type 2 diabetes male Wistar albino rat model assessed as fasting blood glucose level measured on day 28; type: functional
compound,measurement,setting,value
CC1=C([N+](=O)[O-])C(c2ccc(F)c(F)c2)N=C(N)N1C(=O)CN1CCn2c(nnc2C(F)(F)F)C1 (stereo not drawn),Activity,[1],111.1 mg/dL
same,Activity,[2],Non-Toxic
same,Activity,[3],113.91 mg/dL
same,Activity,[4],Active
same,Activity,[5],134.87 mg/dL
same,Activity,[6],117.46 mg/dL
same,Activity,[7],109.45 mg/dL
same,Activity,[8],Active
same,Activity,[9],154.87 mg/dL
same,Activity,[10],Non-Toxic
same,Activity,[11],46.34 mg/dL
same,Activity,[12],Non-Toxic
same,Activity,[13],103.88 mg/dL
same,Activity,[14],Non-Toxic
same,Activity,[15],107.56 mg/dL
same,Activity,[16],117.43 mg/dL
same,Activity,[17],115.67 mg/dL
same,Activity,[18],Non-Toxic
same,Activity,[19],Active
same,Activity,[20],Non-Toxic
same,Activity,[21],115.89 mg/dL
same,IC50,[22],1340 nM
same,Activity,[23],Non-Toxic
same,Activity,[24],Non-Toxic
same,Activity,[25],149.76 mg/dL
same,Activity,[26],54.23 mg/dL
same,Activity,[27],Non-Toxic
same,Activity,[28],Active
same,IC50,[29],1970 nM
same,Activity,[30],120.87 mg/dL
same,Activity,[31],137.56 mg/dL
same,Activity,[32],119.45 mg/dL
same,Activity,[33],Non-Toxic
same,Activity,[34],Active
same,Activity,[35],Active
same,IC50,[36],85 nM
same,Activity,[37],Active
same,Activity,[38],104.01 mg/dL
Cc1nc(N2CCn3c(nnc3C(F)(F)F)C2)nc(C)c1CC(=O)O,IC50,[36],226 nM
CC1=C(CC(=O)N2CCCC2C#N)C(c2ccc(F)c(F)c2)NC(=O)N1 (stereo not drawn),IC50,[36],266 nM
CC1=C(CC(=O)N2CCCC2C#N)C(C)NC(=O)N1 (stereo not drawn),IC50,[36],1030 nM
CC1=C([N+](=O)[O-])C(c2ccc(F)c(F)c2)N=C(N)N1C(=O)CN1CCCC(N)C1 (stereo not drawn),IC50,[36],821 nM
CC1=C([N+](=O)[O-])C(c2ccc(F)c(F)c2)N=C(N)N1C(=O)CN1CCCC1C#N (stereo not drawn),IC50,[36],710 nM
CC1=C(CC(=O)N2Cc3cn(S(C)(=O)=O)nc3C2)C(c2ccc(F)c(F)c2)NC(=O)N1 (stereo not drawn),IC50,[36],478 nM
CC1=C([N+](=O)[O-])C(c2ccc(F)c(F)c2)N=C(N)N1C(=O)CN1CCC[C@H]1C(=O)O (stereo partly drawn),IC50,[36],2540 nM
CS(=O)(=O)n1cc2c(n1)CN([C@H]1CO[C@H](c3cc(F)ccc3F)[C@@H](N)C1)C2 [OMARIGLIPTIN],Activity,[39],293 mg/dL
same,Activity,[40],105 mg/dL
CC1=C(CC(=O)N2CCCC(N)C2)C(c2ccc(F)c(F)c2)NC(=O)N1 (stereo not drawn),IC50,[36],1040 nM
